Patent US8946215B2, “Hydroxy-substituted imidazo[1,2-a]pyridinecarboxamides and their use” (Bayer Pharma Aktiengesellschaft, priority 2012, dated 2015)

Key:
[1] = biological target: T1, recombinant guanylate cyclase reporter cell line (Rattus norvegicus, UniProt P19686+P20595); assay: Action on recombinant guanylate cyclase reporter cell line; type: cell-based; conditions: in some cases mean values obtained from individual determinations
T1 construct: expressed in transfected cells
T1 sequence (P20595 1-619): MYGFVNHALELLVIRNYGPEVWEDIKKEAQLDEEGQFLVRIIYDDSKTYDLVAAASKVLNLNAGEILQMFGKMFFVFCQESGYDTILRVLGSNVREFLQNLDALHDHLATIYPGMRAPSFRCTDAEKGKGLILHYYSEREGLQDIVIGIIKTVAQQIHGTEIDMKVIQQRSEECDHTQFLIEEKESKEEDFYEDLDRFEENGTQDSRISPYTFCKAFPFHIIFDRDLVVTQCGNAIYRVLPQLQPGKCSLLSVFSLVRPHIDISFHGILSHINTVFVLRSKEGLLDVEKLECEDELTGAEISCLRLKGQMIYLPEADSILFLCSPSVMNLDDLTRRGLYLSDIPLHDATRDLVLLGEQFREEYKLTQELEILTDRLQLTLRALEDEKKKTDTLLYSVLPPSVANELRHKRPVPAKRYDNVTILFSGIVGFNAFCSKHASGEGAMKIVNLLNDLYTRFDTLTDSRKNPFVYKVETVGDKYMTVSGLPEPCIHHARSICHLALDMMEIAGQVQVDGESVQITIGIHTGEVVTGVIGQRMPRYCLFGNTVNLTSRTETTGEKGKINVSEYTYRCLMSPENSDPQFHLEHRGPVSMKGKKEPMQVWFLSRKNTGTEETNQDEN
T1 sequence (P19686 1-690): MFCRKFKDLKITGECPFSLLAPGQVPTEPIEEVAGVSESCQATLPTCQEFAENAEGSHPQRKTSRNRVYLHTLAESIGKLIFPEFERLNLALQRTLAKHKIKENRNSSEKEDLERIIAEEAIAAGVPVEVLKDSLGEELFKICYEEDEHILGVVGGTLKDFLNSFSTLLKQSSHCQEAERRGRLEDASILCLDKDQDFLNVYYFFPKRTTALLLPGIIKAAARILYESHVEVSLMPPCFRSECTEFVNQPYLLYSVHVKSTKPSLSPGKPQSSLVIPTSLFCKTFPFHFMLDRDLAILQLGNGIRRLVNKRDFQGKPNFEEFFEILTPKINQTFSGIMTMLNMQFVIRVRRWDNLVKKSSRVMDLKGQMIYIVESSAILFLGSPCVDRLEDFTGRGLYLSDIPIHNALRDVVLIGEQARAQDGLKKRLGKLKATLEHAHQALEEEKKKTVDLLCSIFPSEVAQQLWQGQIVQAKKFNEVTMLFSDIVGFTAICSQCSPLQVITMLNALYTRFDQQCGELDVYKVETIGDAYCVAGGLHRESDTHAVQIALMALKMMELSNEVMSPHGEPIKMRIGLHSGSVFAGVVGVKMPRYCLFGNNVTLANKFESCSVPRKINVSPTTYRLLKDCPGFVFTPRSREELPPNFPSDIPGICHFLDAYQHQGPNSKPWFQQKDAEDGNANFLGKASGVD
How it was run: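 Cell-based reporter assay with recombinant guanylate cyclase expressed in a reporter cell line, per a published method. Activity reported as minimal effective concentration (MEC), in some cases as the mean of individual determinations.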

[2] = Determination of pharmacokinetic parameters following intravenous and oral administration (rats); type: in vivo, male Wistar rats; conditions: following intravenous and peroral administration; for MRT / half-life: male, Wistar, rat, plasma; for MRT: read-out: MRT (Mean Residence Time); for half-life: read-out: t½ (terminal half life) (converted)
Description: B-6. Determination of Pharmacokinetic Parameters Following Intravenous and Oral Administration
The pharmacokinetic parameters of the compounds according to the invention are determined in male CD-1 mice, male Wistar rats and female beagles. Intravenous administration in the case of mice and rats is carried out by means of a species-specific plasma/DMSO formulation, and in the case of dogs by means of a water/PEG400/ethanol formulation. In all species, oral administration of the dissolved substance is performed via gavage, based on a water/PEG400/ethanol formulation.
The taking of blood from rats is simplified by inserting a silicone catheter into the right Vena jugularis externa prior to substance administration. The operation is carried out at least one day prior to the experiment with […] and administration of an analgesic (atropin/Rimadyl (3/1) 0.1 ml s.c.). The blood is taken (generally more than 10 time points) within a time window including terminal time points of at least 24 to a maximum of 72 hours after substance administration. When the blood is taken, it is passed into heparinised tubes. Then the blood plasma is obtained by centrifugation and is optionally stored at −20° C. until further processing.
An internal standard (which may also be a chemically unrelated substance) is added to the samples of the compounds according to the invention, calibration samples and qualifiers, and there follows protein precipitation by means of excess acetonitrile. Addition of a buffer solution matched to the LC conditions, and subsequent vortexing, is followed by centrifugation at 1000 g. The supernatant is analysed by LC-MS/MS using C18 reversed-phase columns and variable mobile phase mixtures.
The substances are quantified via the peak heights or areas from extracted ion chromatograms of specific selected ion monitoring experiments.
The plasma concentration/time plots determined are used to calculate the pharmacokinetic parameters such as AUC, Cmax, t1/2 (terminal half life), F (Bioavailability), MRT (Mean Residence Time) and CL (Clearance), using a validated pharmacokinetic calculation programme.
Since the substance quantification is carried out in plasma, it is necessary to determine the blood/plasma distribution of the substance in order to be able to adjust the pharmacokinetic parameters correspondingly. For this purpose, a defined amount of substance is incubated in heparinised whole blood of the species in question in a rocking roller mixer for 20 min. After centrifugation at 1000 g, the plasma concentration is measured (by means of LC-MS/MS; see above) and determined by calculating the ratio of the Cblood/Cplasma value.

Cc1nc2c(OCc3ncccc3F)cc(Cl)cn2c1C(=O)NC(CCCC(F)(F)F)C(C)(C)O (single isomer, unassigned; ent-6) [Example 188, ent-6-chloro-8-[(3-fluoropyridin-2-yl)methoxy]-2-methyl-N-(7,7,7-trifluoro-2-hydroxy-2-methylheptan-3-yl)imidazo[1,2-a]pyridine-3-carboxamide (enantiomer A)]
MEC (minimal effective concentration) [1]: 0.3 µM
AUCnorm [2]: 2.3 kg·h/L
CLblood [2]: 8.83 mL/min/kg
MRT [2]: 2.5 h
half-life [2]: 1.7 h

Cc1nc2c(OCc3ncccc3F)cc(Cl)cn2c1C(=O)NC(CCC(F)(F)C(F)(F)F)C(C)(C)O (single isomer, unassigned; ent-6) [Example 194, ent-6-chloro-8-[(3-fluoropyridin-2-yl)methoxy]-2-methyl-N-(6,6,7,7,7-pentafluoro-2-hydroxy-2-methylheptan-3-yl)imidazo[1,2-a]pyridine-3-carboxamide (enantiomer A)]
MEC (minimal effective concentration) [1]: 0.53 µM
AUCnorm [2]: 2.9 kg·h/L
CLblood [2]: 7.33 mL/min/kg
MRT [2]: 8.4 h
half-life [2]: 6.2 h

CCCC[C@@H](NC(=O)c1c(C)nc2c(OCc3c(F)cccc3F)cccn12)C(C)O (stereo partly drawn) [Example 139, 8-[(2,6-Difluorobenzyl)oxy]-N-[(3R)-2-hydroxyheptan-3-yl]-2-methylimidazo[1,2-a]pyridine-3-carboxamide]
MEC (minimal effective concentration) [1]: 0.03 µM

CCCC[C@@H](NC(=O)c1c(C)nc2c(OCc3c(F)cccc3F)cccn12)C(C)O (stereo partly drawn) [Example 140, 8-[(2,6-Difluorobenzyl)oxy]-N-[(3R)-2-hydroxyheptan-3-yl]-2-methylimidazo[1,2-a]pyridine-3-carboxamide]
MEC (minimal effective concentration) [1]: 0.03 µM

CCCC[C@@H](NC(=O)c1c(C)nc2c(OCc3c(F)cccc3F)cccn12)C(O)C(F)(F)F (stereo partly drawn) [Example 141, 8-[(2,6-Difluorobenzyl)oxy]-2-methyl-N-[(3R)-1,1,1-trifluoro-2-hydroxyheptan-3-yl]imidazo[1,2-a]pyridine-3-carboxamide]
MEC (minimal effective concentration) [1]: 0.1 µM

CCCC[C@@H](NC(=O)c1c(C)nc2c(OCc3c(F)cccc3F)cccn12)C(O)C(F)(F)F (stereo partly drawn) [Example 142, 8-[(2,6-Difluorobenzyl)oxy]-2-methyl-N-[(3R)-1,1,1-trifluoro-2-hydroxyheptan-3-yl]imidazo[1,2-a]pyridine-3-carboxamide]
MEC (minimal effective concentration) [1]: 0.1 µM

CCCC[C@@H](NC(=O)c1c(C)nc2c(OCc3c(F)cccc3F)cccn12)C(C)(C)O [Example 147, 8-[(2,6-Difluorobenzyl)oxy]-N-[(3R)-2-hydroxy-2-methylheptan-3-yl]-2-methylimidazo[1,2-a]-pyridine-3-carboxamide]
MEC (minimal effective concentration) [1]: 0.1 µM

Cc1nc2c(OCc3c(F)cccc3F)cccn2c1C(=O)NCCC(C)(C)O [Example 153, 8-[(2,6-difluorobenzyl)oxy]-N-(3-hydroxy-3-methylbutyl)-2-methylimidazo[1,2-a]pyridine-3-carboxamide]
MEC (minimal effective concentration) [1]: 0.3 µM

CCCC[C@H](CO)NC(=O)c1c(C)nc2c(OCc3c(F)cccc3F)cc(C#N)cn12 [Example 157, 6-Cyano-8-[(2,6-difluorobenzyl)oxy]-N-[(2R)-1-hydroxyhexan-2-yl]-2-methylimidazo[1,2-a]-pyridine-3-carboxamide]
MEC (minimal effective concentration) [1]: 0.065 µM

CCCC[C@H](CO)NC(=O)c1c(C)nc2c(OCCC(C)C)cccn12 [Example 159, N-[(2R)-1-Hydroxyhexan-2-yl]-2-methyl-8-(3-methylbutoxy)imidazo[1,2-a]pyridine-3-carboxamide]
MEC (minimal effective concentration) [1]: 1.0 µM

COC(=O)[C@H](CO)NC(=O)c1c(C)nc2c(OCc3c(F)cccc3F)cccn12 [Example 164, Methyl N-({8-[(2,6-difluorobenzyl)oxy]-2-methylimidazo[1,2-a]pyridin-3-yl}carbonyl)-L-serinate]
MEC (minimal effective concentration) [1]: 0.2 µM

Cc1nc2c(OCc3c(F)cccc3F)cccn2c1C(=O)N[C@@H](CO)C(C)(C)O [Example 165, 8-[(2,6-Difluorobenzyl)oxy]-N-[(2S)-3-dihydroxy-3-methylbutan-2-yl]-2-methylimidazo[1,2-a]-pyridine-3-carboxamide]
MEC (minimal effective concentration) [1]: 1.0 µM

CCCC[C@H](CO)NC(=O)c1c(C)nc2c(OCCC(C)C)cc(C)cn12 [Example 166, N-[(2R)-1-Hydroxyhexan-2-yl]-2,6-dimethyl-8-(3-methylbutoxy)imidazo[1,2-a]pyridine-3-carboxamide]
MEC (minimal effective concentration) [1]: 1.0 µM

CCCC[C@H](CO)NC(=O)c1c(C)nc2c(OCCC(C(F)(F)F)C(F)(F)F)cc(C)cn12 [Example 169, N-[(2R)-1-Hydroxyhexan-2-yl]-2,6-dimethyl-8-[4,4,4-trifluoro-3-(trifluoromethyl)butoxy]imidazo-[1,2-a]pyridine-3-carboxamide]
MEC (minimal effective concentration) [1]: 0.3 µM

Cc1cc(OCCC(C(F)(F)F)C(F)(F)F)c2nc(C)c(C(=O)NC3c4ccccc4CC3O)n2c1 (stereo not shown) [Example 172, N-(2-Hydroxy-2,3-dihydro-1H-inden-1-yl)-2,6-dimethyl-8-[4,4,4-trifluoro-3-(trifluoromethyl)-butoxy]imidazo[1,2-a]pyridine-3-carboxamide]
MEC (minimal effective concentration) [1]: 1.0 µM

Cc1cc(OCCC(C(F)(F)F)C(F)(F)F)c2nc(C)c(C(=O)NC3CCCC3O)n2c1 (stereo not shown) [Example 173, N-(2-hydroxycyclopentyl)-2,6-dimethyl-8-[4,4,4-trifluoro-3-(trifluoromethyl)butoxy]imidazo[1,2-a]pyridine-3-carboxamide]
MEC (minimal effective concentration) [1]: 3.0 µM

CCCC[C@H](CO)NC(=O)c1c(C)nc2c(OCc3c(F)cccc3F)c(F)ccn12 [Example 177, 8-[(2,6-Difluorobenzyl)oxy]-7-fluoro-N-[(2R)-1-hydroxyhexan-2-yl]-2-methylimidazo[1,2-a]-pyridine-3-carboxamide]
MEC (minimal effective concentration) [1]: 1.0 µM
